Earlier results as cited in patent US20140294923A1, “ACTH FOR TREATMENT OF MIGRAINE HEADACHE” (priority 2013, published 2014).

Test system: CGRP release
Settings: experimental models; Ulrich-Lai 2001

In the case of “ACTH (SYSMEHFRWGKPVGKKRRPVKVYPDGAEDQLAEAFPLEF)”, the “release of CGRP” value is listed as “inhibit the release of CGRP”.
